Results reported in PMC9558423 (Molecular nutrition & food research, 2020).
Structures can show the parent of a compound that is named as a salt. Marks after values point to notes of the source that are not given here.

Conditions: High dose (1000 mg/kg bw); 12h urine collections; np = no peak

Structure (SMILES)	Qualitative Tmax (urine collection with greatest excretion)
COc1ccc(CC(=O)O)cc1O [3-OH-4-OMe-PAA]	np
COc1ccc(CCC(=O)O)cc1O [3-OH-4-OMe-PPA, 3-hydroxy-4-methoxyphenylpropionic acid]	12 to 24 h
O=C(O)CCc1cccc(O)c1 [3-OH-PPA, 3-hydroxyphenylpropionic acid]	12 to 24 h
O=C(O[C@@H]1O[C@H](C(=O)O)[C@@H](O)[C@H](O)[C@H]1O)c1ccccc1 [BzA glucuronide]	12 to 24 h
OC[C@H]1O[C@@H](Oc2cc3c(O)cc(O)cc3[o+]c2-c2ccc(O)c(O)c2)[C@H](O)[C@@H](O)[C@H]1O [Cyanidin Galactoside]	0 to 12 h
OC[C@H]1O[C@@H](Oc2cc3c(O)cc(O)cc3[o+]c2-c2ccc(O)c(O)c2)[C@H](O)[C@@H](O)[C@@H]1O [Cyanidin Glucoside, cyanidin-3-O-glucoside]	0 to 12 h
OC[C@H]1O[C@@H](Oc2cc3c(O)cc(O)cc3[o+]c2-c2cc(O)c(O)c(O)c2)[C@H](O)[C@@H](O)[C@H]1O [Delphinidin Galactoside]	0 to 12 h
OC[C@H]1O[C@@H](Oc2cc3c(O)cc(O)cc3[o+]c2-c2cc(O)c(O)c(O)c2)[C@H](O)[C@@H](O)[C@@H]1O [Delphinidin Glucoside, delphindin-3-O-glucoside]	0 to 24 h
COc1cc(/C=C/C(=O)O)ccc1OS(=O)(=O)O [Ferulic acid sulfate]	0 to 12 h
COc1cc(-c2[o+]c3cc(O)cc(O)c3cc2O[C@@H]2O[C@H](CO)[C@H](O)[C@H](O)[C@H]2O)cc(OC)c1O [Malvidin Galactoside, malvidin-3-O-galactoside]	0 to 12 h

Same assay, conditions: High dose (1000 mg/kg bw); urine; mean ± SD

Structure (SMILES)	Cmax (nmol excreted)
COc1ccc(CC(=O)O)cc1O [3-OH-4-OMe-PAA]	np
COc1ccc(CCC(=O)O)cc1O [3-OH-4-OMe-PPA, 3-hydroxy-4-methoxyphenylpropionic acid]	2.48 ± 2.69 nmol excreted
O=C(O)CCc1cccc(O)c1 [3-OH-PPA, 3-hydroxyphenylpropionic acid]	275 ± 34 nmol excreted
O=C(O[C@@H]1O[C@H](C(=O)O)[C@@H](O)[C@H](O)[C@H]1O)c1ccccc1 [BzA glucuronide]	0.76 ± 0.17 nmol excreted
OC[C@H]1O[C@@H](Oc2cc3c(O)cc(O)cc3[o+]c2-c2ccc(O)c(O)c2)[C@H](O)[C@@H](O)[C@H]1O [Cyanidin Galactoside]	0.46 ± 0.09 nmol excreted
OC[C@H]1O[C@@H](Oc2cc3c(O)cc(O)cc3[o+]c2-c2ccc(O)c(O)c2)[C@H](O)[C@@H](O)[C@@H]1O [Cyanidin Glucoside, cyanidin-3-O-glucoside]	0.22 ± 0.04 nmol excreted
OC[C@H]1O[C@@H](Oc2cc3c(O)cc(O)cc3[o+]c2-c2cc(O)c(O)c(O)c2)[C@H](O)[C@@H](O)[C@H]1O [Delphinidin Galactoside]	1.74 ± 0.22 nmol excreted
OC[C@H]1O[C@@H](Oc2cc3c(O)cc(O)cc3[o+]c2-c2cc(O)c(O)c(O)c2)[C@H](O)[C@@H](O)[C@@H]1O [Delphinidin Glucoside, delphindin-3-O-glucoside]	0.94 ± 0.22 nmol excreted
COc1cc(/C=C/C(=O)O)ccc1OS(=O)(=O)O [Ferulic acid sulfate]	18.7 ± 14.9 nmol excreted
COc1cc(-c2[o+]c3cc(O)cc(O)c3cc2O[C@@H]2O[C@H](CO)[C@H](O)[C@H](O)[C@H]2O)cc(OC)c1O [Malvidin Galactoside, malvidin-3-O-galactoside]	14.2 ± 1.3 nmol excreted

Same assay, conditions: Low dose (75 mg/kg bw); 12h urine collections; np = no peak

Structure (SMILES)	Qualitative Tmax (urine collection with greatest excretion)
COc1ccc(CC(=O)O)cc1O [3-OH-4-OMe-PAA]	np
COc1ccc(CCC(=O)O)cc1O [3-OH-4-OMe-PPA, 3-hydroxy-4-methoxyphenylpropionic acid]	0 to 12 h
O=C(O)CCc1cccc(O)c1 [3-OH-PPA, 3-hydroxyphenylpropionic acid]	0 to 12 h
O=C(O[C@@H]1O[C@H](C(=O)O)[C@@H](O)[C@H](O)[C@H]1O)c1ccccc1 [BzA glucuronide]	np
OC[C@H]1O[C@@H](Oc2cc3c(O)cc(O)cc3[o+]c2-c2ccc(O)c(O)c2)[C@H](O)[C@@H](O)[C@H]1O [Cyanidin Galactoside]	np
OC[C@H]1O[C@@H](Oc2cc3c(O)cc(O)cc3[o+]c2-c2ccc(O)c(O)c2)[C@H](O)[C@@H](O)[C@@H]1O [Cyanidin Glucoside, cyanidin-3-O-glucoside]	np
OC[C@H]1O[C@@H](Oc2cc3c(O)cc(O)cc3[o+]c2-c2cc(O)c(O)c(O)c2)[C@H](O)[C@@H](O)[C@H]1O [Delphinidin Galactoside]	np
OC[C@H]1O[C@@H](Oc2cc3c(O)cc(O)cc3[o+]c2-c2cc(O)c(O)c(O)c2)[C@H](O)[C@@H](O)[C@@H]1O [Delphinidin Glucoside, delphindin-3-O-glucoside]	np
COc1cc(/C=C/C(=O)O)ccc1OS(=O)(=O)O [Ferulic acid sulfate]	np
COc1cc(-c2[o+]c3cc(O)cc(O)c3cc2O[C@@H]2O[C@H](CO)[C@H](O)[C@H](O)[C@H]2O)cc(OC)c1O [Malvidin Galactoside, malvidin-3-O-galactoside]	np

Same assay, conditions: Low dose (75 mg/kg bw); urine; mean ± SD

Structure (SMILES)	Cmax (nmol excreted)
COc1ccc(CC(=O)O)cc1O [3-OH-4-OMe-PAA]	np
COc1ccc(CCC(=O)O)cc1O [3-OH-4-OMe-PPA, 3-hydroxy-4-methoxyphenylpropionic acid]	0.82 ± 0.58 nmol excreted
O=C(O)CCc1cccc(O)c1 [3-OH-PPA, 3-hydroxyphenylpropionic acid]	25.4 ± 6.9 nmol excreted
O=C(O[C@@H]1O[C@H](C(=O)O)[C@@H](O)[C@H](O)[C@H]1O)c1ccccc1 [BzA glucuronide]	np
OC[C@H]1O[C@@H](Oc2cc3c(O)cc(O)cc3[o+]c2-c2ccc(O)c(O)c2)[C@H](O)[C@@H](O)[C@H]1O [Cyanidin Galactoside]	np
OC[C@H]1O[C@@H](Oc2cc3c(O)cc(O)cc3[o+]c2-c2ccc(O)c(O)c2)[C@H](O)[C@@H](O)[C@@H]1O [Cyanidin Glucoside, cyanidin-3-O-glucoside]	np
OC[C@H]1O[C@@H](Oc2cc3c(O)cc(O)cc3[o+]c2-c2cc(O)c(O)c(O)c2)[C@H](O)[C@@H](O)[C@H]1O [Delphinidin Galactoside]	np
OC[C@H]1O[C@@H](Oc2cc3c(O)cc(O)cc3[o+]c2-c2cc(O)c(O)c(O)c2)[C@H](O)[C@@H](O)[C@@H]1O [Delphinidin Glucoside, delphindin-3-O-glucoside]	np
COc1cc(/C=C/C(=O)O)ccc1OS(=O)(=O)O [Ferulic acid sulfate]	np
COc1cc(-c2[o+]c3cc(O)cc(O)c3cc2O[C@@H]2O[C@H](CO)[C@H](O)[C@H](O)[C@H]2O)cc(OC)c1O [Malvidin Galactoside, malvidin-3-O-galactoside]	np

Same assay, conditions: Medium dose (350 mg/kg bw); 12h urine collections; np = no peak

Structure (SMILES)	Qualitative Tmax (urine collection with greatest excretion)
COc1ccc(CC(=O)O)cc1O [3-OH-4-OMe-PAA]	np
COc1ccc(CCC(=O)O)cc1O [3-OH-4-OMe-PPA, 3-hydroxy-4-methoxyphenylpropionic acid]	12 to 24 h
O=C(O)CCc1cccc(O)c1 [3-OH-PPA, 3-hydroxyphenylpropionic acid]	0 to 12 h
O=C(O[C@@H]1O[C@H](C(=O)O)[C@@H](O)[C@H](O)[C@H]1O)c1ccccc1 [BzA glucuronide]	12 to 24 h
OC[C@H]1O[C@@H](Oc2cc3c(O)cc(O)cc3[o+]c2-c2ccc(O)c(O)c2)[C@H](O)[C@@H](O)[C@H]1O [Cyanidin Galactoside]	0 to 12 h
OC[C@H]1O[C@@H](Oc2cc3c(O)cc(O)cc3[o+]c2-c2ccc(O)c(O)c2)[C@H](O)[C@@H](O)[C@@H]1O [Cyanidin Glucoside, cyanidin-3-O-glucoside]	0 to 24 h
OC[C@H]1O[C@@H](Oc2cc3c(O)cc(O)cc3[o+]c2-c2cc(O)c(O)c(O)c2)[C@H](O)[C@@H](O)[C@H]1O [Delphinidin Galactoside]	0 to 12 h
OC[C@H]1O[C@@H](Oc2cc3c(O)cc(O)cc3[o+]c2-c2cc(O)c(O)c(O)c2)[C@H](O)[C@@H](O)[C@@H]1O [Delphinidin Glucoside, delphindin-3-O-glucoside]	0 to 24 h
COc1cc(/C=C/C(=O)O)ccc1OS(=O)(=O)O [Ferulic acid sulfate]	0 to 12 h
COc1cc(-c2[o+]c3cc(O)cc(O)c3cc2O[C@@H]2O[C@H](CO)[C@H](O)[C@H](O)[C@H]2O)cc(OC)c1O [Malvidin Galactoside, malvidin-3-O-galactoside]	0 to 12 h

Same assay, conditions: Medium dose (350 mg/kg bw); urine; mean ± SD

Structure (SMILES)	Cmax (nmol excreted)
COc1ccc(CC(=O)O)cc1O [3-OH-4-OMe-PAA]	np
COc1ccc(CCC(=O)O)cc1O [3-OH-4-OMe-PPA, 3-hydroxy-4-methoxyphenylpropionic acid]	2.69 ± 1.83 nmol excreted
O=C(O)CCc1cccc(O)c1 [3-OH-PPA, 3-hydroxyphenylpropionic acid]	177 ± 24 nmol excreted
O=C(O[C@@H]1O[C@H](C(=O)O)[C@@H](O)[C@H](O)[C@H]1O)c1ccccc1 [BzA glucuronide]	0.85 ± 0.17 nmol excreted
OC[C@H]1O[C@@H](Oc2cc3c(O)cc(O)cc3[o+]c2-c2ccc(O)c(O)c2)[C@H](O)[C@@H](O)[C@H]1O [Cyanidin Galactoside]	0.19 ± 0.04 nmol excreted
OC[C@H]1O[C@@H](Oc2cc3c(O)cc(O)cc3[o+]c2-c2ccc(O)c(O)c2)[C@H](O)[C@@H](O)[C@@H]1O [Cyanidin Glucoside, cyanidin-3-O-glucoside]	0.11 ± 0.05 nmol excreted
OC[C@H]1O[C@@H](Oc2cc3c(O)cc(O)cc3[o+]c2-c2cc(O)c(O)c(O)c2)[C@H](O)[C@@H](O)[C@H]1O [Delphinidin Galactoside]	0.98 ± 0.20 nmol excreted
OC[C@H]1O[C@@H](Oc2cc3c(O)cc(O)cc3[o+]c2-c2cc(O)c(O)c(O)c2)[C@H](O)[C@@H](O)[C@@H]1O [Delphinidin Glucoside, delphindin-3-O-glucoside]	0.81 ± 0.14 nmol excreted
COc1cc(/C=C/C(=O)O)ccc1OS(=O)(=O)O [Ferulic acid sulfate]	7.41 ± 3.52 nmol excreted
COc1cc(-c2[o+]c3cc(O)cc(O)c3cc2O[C@@H]2O[C@H](CO)[C@H](O)[C@H](O)[C@H]2O)cc(OC)c1O [Malvidin Galactoside, malvidin-3-O-galactoside]	7.36 ± 2.00 nmol excreted

Same assay, conditions: as stated in text/figure legend, doses not separated

Structure (SMILES)	Time of maximal urinary excretion after dosing [h]
COc1cc(-c2[o+]c3cc(O)cc(O)c3cc2O[C@@H]2O[C@H](CO)[C@H](O)[C@H](O)[C@H]2O)cc(OC)c1O [Malvidin Galactoside, malvidin-3-O-galactoside]	≤ 12

Conditions: High dose (1000 mg/kg bw); blood every 6h; np = no peak

Structure (SMILES)	Qualitative Tmax (blood collection with greatest plasma level) [h]
O=C(O)CCc1cccc(O)c1 [3-OH-PPA, 3-hydroxyphenylpropionic acid]	12
COc1cc(/C=C/C(=O)O)ccc1OS(=O)(=O)O [Ferulic acid sulfate]	6

Same assay, conditions: High dose (1000 mg/kg bw); plasma 0–48h; trapezoidal; mean ± SD

Structure (SMILES)	Plasma AUC
O=C(O)CCc1cccc(O)c1 [3-OH-PPA, 3-hydroxyphenylpropionic acid]	8.00 ± 2.22 ^x uM*h
COc1cc(/C=C/C(=O)O)ccc1OS(=O)(=O)O [Ferulic acid sulfate]	9.12 ± 2.89 ^x uM*h

Same assay, conditions: High dose (1000 mg/kg bw); plasma; mean ± SD

Structure (SMILES)	Cmax [nM]
O=C(O)CCc1cccc(O)c1 [3-OH-PPA, 3-hydroxyphenylpropionic acid]	507 ± 107
COc1cc(/C=C/C(=O)O)ccc1OS(=O)(=O)O [Ferulic acid sulfate]	825 ± 317

Same assay, conditions: Low dose (75 mg/kg bw); blood every 6h; np = no peak

Structure (SMILES)	Qualitative Tmax (blood collection with greatest plasma level)
COc1cc(/C=C/C(=O)O)ccc1OS(=O)(=O)O [Ferulic acid sulfate]	np

Same assay, conditions: Low dose (75 mg/kg bw); plasma 0–48h; trapezoidal; mean ± SD

Structure (SMILES)	Plasma AUC
COc1cc(/C=C/C(=O)O)ccc1OS(=O)(=O)O [Ferulic acid sulfate]	6.16 ± 1.50 ^x uM*h

Same assay, conditions: Low dose (75 mg/kg bw); plasma; mean ± SD

Structure (SMILES)	Cmax
COc1cc(/C=C/C(=O)O)ccc1OS(=O)(=O)O [Ferulic acid sulfate]	np

Same assay, conditions: Medium dose (350 mg/kg bw); blood every 6h; np = no peak

Structure (SMILES)	Qualitative Tmax (blood collection with greatest plasma level) [h]
O=C(O)CCc1cccc(O)c1 [3-OH-PPA, 3-hydroxyphenylpropionic acid]	12
COc1cc(/C=C/C(=O)O)ccc1OS(=O)(=O)O [Ferulic acid sulfate]	6

Same assay, conditions: Medium dose (350 mg/kg bw); plasma 0–48h; trapezoidal; mean ± SD

Structure (SMILES)	Plasma AUC
O=C(O)CCc1cccc(O)c1 [3-OH-PPA, 3-hydroxyphenylpropionic acid]	2.46 ± 0.95 ^w uM*h
COc1cc(/C=C/C(=O)O)ccc1OS(=O)(=O)O [Ferulic acid sulfate]	6.33 ± 3.04 ^x uM*h

Same assay, conditions: Medium dose (350 mg/kg bw); plasma; mean ± SD

Structure (SMILES)	Cmax [nM]
O=C(O)CCc1cccc(O)c1 [3-OH-PPA, 3-hydroxyphenylpropionic acid]	161 ± 92
COc1cc(/C=C/C(=O)O)ccc1OS(=O)(=O)O [Ferulic acid sulfate]	262 ± 169
